In patent US9556179B2 (BRISTOL-MYERS SQUIBB COMPANY, priority 2012, dated 2017):

Tests used:
CK1ε = CK1ε (Homo sapiens (Human), UniProt P49674); assay: CK1ε kinase assay (Caliper LABCHIP electrophoretic separation of fluoresceinated peptide substrate and product); assay type: biochemical; details: 200 pM enzyme, 50 μM ATP, 22 hours at room temperature
Procedure, shortened: (§1)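 Incubated for twenty-two hours at ambient temperature, then quenched with EDTA and analyzed by electrophoretic separation of unphosphorylated and phosphorylated peptide.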

CK1δ = CK1δ (Homo sapiens (Human), UniProt P48730); assay: CK1δ kinase assay (Caliper LABCHIP electrophoretic separation of fluoresceinated peptide substrate and product); assay type: biochemical; details: 200 pM enzyme, 50 μM ATP, 22 hours at room temperature
Chain of CK1δ (P48730 whole entry): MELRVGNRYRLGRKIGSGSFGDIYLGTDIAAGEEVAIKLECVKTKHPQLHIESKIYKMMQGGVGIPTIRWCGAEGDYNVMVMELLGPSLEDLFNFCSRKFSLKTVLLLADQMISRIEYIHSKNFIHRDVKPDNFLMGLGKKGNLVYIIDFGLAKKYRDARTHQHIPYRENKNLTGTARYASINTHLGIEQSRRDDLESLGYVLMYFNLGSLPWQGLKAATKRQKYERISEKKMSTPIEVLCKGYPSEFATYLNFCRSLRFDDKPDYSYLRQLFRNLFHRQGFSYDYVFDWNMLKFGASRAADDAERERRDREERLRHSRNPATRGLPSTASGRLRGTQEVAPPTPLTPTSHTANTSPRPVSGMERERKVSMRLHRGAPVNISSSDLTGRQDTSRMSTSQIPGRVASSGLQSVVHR
Procedure, shortened: as §1

Chain of CK1ε (P49674 whole entry): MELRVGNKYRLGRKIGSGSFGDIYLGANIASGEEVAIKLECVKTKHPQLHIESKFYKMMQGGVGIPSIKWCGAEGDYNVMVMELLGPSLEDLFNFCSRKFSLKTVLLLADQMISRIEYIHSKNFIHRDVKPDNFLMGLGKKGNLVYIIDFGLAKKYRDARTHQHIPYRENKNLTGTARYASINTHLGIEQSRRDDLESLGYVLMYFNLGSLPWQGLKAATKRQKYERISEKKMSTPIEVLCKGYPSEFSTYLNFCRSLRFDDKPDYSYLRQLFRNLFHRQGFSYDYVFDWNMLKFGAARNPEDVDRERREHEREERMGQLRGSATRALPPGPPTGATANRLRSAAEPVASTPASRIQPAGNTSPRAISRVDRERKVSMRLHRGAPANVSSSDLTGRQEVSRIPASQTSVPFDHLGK

| IC50 (CK1ε) | IC50 (CK1δ) | Structure (SMILES) |
| --- | --- | --- |
| 3.09 nM | 0.446 nM | CC(C)(C)C(=O)N1CCC(n2cnc(-c3ccc(F)cc3)c2-c2ccc3nc(NC(=O)c4ccnc(F)c4)cn3n2)CC1 [Compound 54, 2-fluoro-N-(6-(4-(4-fluorophenyl)-1-(1-pivaloylpiperidin-4-yl)-1H-imidazol-5-yl)imidazo[1,2-b]pyridazin-2-yl)isonicotinamide] |
| 1.05 nM | 0.178 nM | CC(C)(O)C(=O)N1CCC(n2cnc(-c3ccc(F)cc3)c2-c2ccc3nc(NC(=O)c4ccnc(F)c4)cn3n2)CC1 [Compound 55, 2-fluoro-N-(6-(4-(4-fluorophenyl)-1-(1-(2-hydroxy-2-methylpropanoyl)piperidin-4-yl)-1H-imidazol-5-yl)imidazo[1,2-b]pyridazin-2-yl)isonicotinamide] |
| 0.457 nM | 0.233 nM | CS(=O)(=O)CC(=O)N1CCC(n2cnc(-c3ccc(F)cc3)c2-c2ccc3nc(NC(=O)c4ccnc(F)c4)cn3n2)CC1 [Compound 58, 2-fluoro-N-(6-(4-(4-fluorophenyl)-1-(1-(2-(methylsulfonyl)acetyl)piperidin-4-yl)-1H-imidazol-5-yl)imidazo[1,2-b]pyridazin-2-yl)isonicotinamide] |
| 1.97 nM | 0.579 nM | O=C(Nc1cn2nc(-c3c(-c4ccc(F)cc4)ncn3C3CCN(C(=O)CCC(F)(F)F)CC3)ccc2n1)c1ccnc(F)c1 [Compound 59, 2-fluoro-N-(6-(4-(4-fluorophenyl)-1-(1-(4,4,4-trifluorobutanoyl)piperidin-4-yl)-1H-imidazol-5-yl)imidazo[1,2-b]pyridazin-2-yl)isonicotinamide] |
| 0.798 nM | 0.361 nM | CC(C)(F)C(=O)N1CCC(n2cnc(-c3ccc(F)cc3)c2-c2ccc3nc(NC(=O)c4ccnc(F)c4)cn3n2)CC1 [Compound 64, 2-fluoro-N-(6-(1-(1-(2-fluoro-2-methylpropanoyl)piperidin-4-yl)-4-(4-fluorophenyl)-1H-imidazol-5-yl)imidazo[1,2-6]pyridazin-2-yl)isonicotinamide] |
| 1.37 nM | 0.256 nM | O=C(Nc1cn2nc(-c3c(-c4ccc(F)cc4)ncn3C3CCN(C(=O)C4CC4(F)F)CC3)ccc2n1)c1ccnc(F)c1 (centres unmarked) [Compound 65, N-(6-(1-(1-(2,2-difluorocyclopropanecarbonyl)piperidin-4-yl)-4-(4-fluorophenyl)-1H-imidazol-5-yl)imidazo[1,2-b]pyridazin-2-yl)-2-fluoroisonicotinamide] |
| 7.2 nM | 0.928 nM | CC1(C)CC1C(=O)N1CCC(n2cnc(-c3ccc(F)cc3)c2-c2ccc3nc(NC(=O)c4ccnc(F)c4)cn3n2)CC1 (centres unmarked) [Compound 66, N-(6-(1-(1-(2,2-dimethylcyclopropanecarbonyl)piperidin-4-yl)-4-(4-fluorophenyl)-1H-imidazol-5-yl)imidazo[1,2-6]pyridazin-2-yl)-2-fluoroisonicotinamide] |
| 0.493 nM | 0.143 nM | O=C(Nc1cn2nc(-c3c(-c4ccc(F)cc4)ncn3C3CCN(C(=O)CCCl)CC3)ccc2n1)c1ccnc(F)c1 [Compound 70, N-(6-(1-(1-(3-chloropropanoyl)piperidin-4-yl)-4-(4-fluorophenyl)-1H-imidazol-5-yl)imidazo[1,2-b]pyridazin-2-yl)-2-fluoroisonicotinamide] |
| 3.49 nM | 1.4 nM | CC(C)(C)COC(=O)N1CCC(n2cnc(-c3ccc(F)cc3)c2-c2ccc3nc(NC(=O)c4ccnc(F)c4)cn3n2)CC1 [Compound 75, neopentyl 4-(5-(2-(2-fluoroisonicotinamido)imidazo[1,2-b]pyridazin-6-yl)-4-(4-fluorophenyl)-1H-imidazol-1-yl)piperidine-1-carboxylate] |
| 1.8 nM | 0.251 nM | CC(C)OC(=O)N1CCC(n2cnc(-c3ccc(F)cc3)c2-c2ccc3nc(NC(=O)c4ccnc(F)c4)cn3n2)CC1 [Compound 76, isopropyl 4-(5-(2-(2-fluoroisonicotinamido)imidazo[1,2-b]pyridazin-6-yl)-4-(4-fluorophenyl)-1H-imidazol-1-yl)piperidine-1-carboxylate] |
| 1.91 nM | 0.376 nM | CC(C)COC(=O)N1CCC(n2cnc(-c3ccc(F)cc3)c2-c2ccc3nc(NC(=O)c4ccnc(F)c4)cn3n2)CC1 [Compound 79, isobutyl 4-(5-(2-(2-fluoroisonicotinamido)imidazo[1,2-b]pyridazin-6-yl)-4-(4-fluorophenyl)-1H-imidazol-1-yl)piperidine-1-carboxylate] |

More lines, now with the values behind:

| Structure (SMILES) | IC50 (CK1ε) | IC50 (CK1δ) |
| --- | --- | --- |
| O=C(Nc1cn2nc(-c3c(-c4ccc(F)cc4)ncn3C3CCN(C(=O)c4ccc(F)cc4)CC3)ccc2n1)c1ccnc(F)c1 [Compound 53, 2-fluoro-N-(6-(1-(1-(4-fluorobenzoyl)piperidin-4-yl)-4-(4-fluorophenyl)-1H-imidazol-5-yl)imidazo[1,2-b]pyridazin-2-yl)isonicotinamide] | 1.56 nM | 0.191 nM |
| O=C(Nc1cn2nc(-c3c(-c4ccc(F)cc4)ncn3C3CCN(C(=O)c4ccncc4)CC3)ccc2n1)c1ccnc(F)c1 [Compound 56, 2-fluoro-N-(6-(4-(4-fluorophenyl)-1-(1 isonicotinoylpiperidin-4-yl)-1H-imidazol-5-yl)imidazo[1,2-b]pyridazin-2-yl)isonicotinamide] | 0.297 nM | 0.13 nM |
| Cc1noc(C)c1C(=O)N1CCC(n2cnc(-c3ccc(F)cc3)c2-c2ccc3nc(NC(=O)c4ccnc(F)c4)cn3n2)CC1 [Compound 57, N-(6-(1-(1-(3,5-dimethylisoxazole-4-carbonyl)piperidin-4-yl)-4-(4-fluorophenyl)-1H-imidazol-5-yl)imidazo[1,2-b]pyridazin-2-yl)-2-fluoroisonicotinamide] | 3.42 nM | 0.321 nM |
| Cn1ccc(C(=O)N2CCC(n3cnc(-c4ccc(F)cc4)c3-c3ccc4nc(NC(=O)c5ccnc(F)c5)cn4n3)CC2)n1 [Compound 60, 2-fluoro-N-(6-(4-(4-fluorophenyl)-1-(1-(1-methyl-1H-pyrazole-3-carbonyl)piperidin-4-yl)-1H-imidazol-5-yl)imidazo[1,2-b]pyridazin-2-yl)isonicotinamide] | 0.545 nM | 0.213 nM |
| O=C(Nc1cn2nc(-c3c(-c4ccc(F)cc4)ncn3C3CCN(C(=O)CN4CCOCC4)CC3)ccc2n1)c1ccnc(F)c1 [Compound 61, 2-fluoro-N-(6-(4-(4-fluorophenyl)-1-(1-(2-morpholinoacetyl)piperidin-4-yl)-1H-imidazol-5-yl)imidazo[1,2-b]pyridazin-2-yl)isonicotinamide] | 1.26 nM | 0.186 nM |
| Cc1oncc1C(=O)N1CCC(n2cnc(-c3ccc(F)cc3)c2-c2ccc3nc(NC(=O)c4ccnc(F)c4)cn3n2)CC1 [Compound 62, 2-fluoro-N-(6-(4-(4-fluorophenyl)-1-(1-(5-methylisoxazole-4-carbonyl)piperidin-4-yl)-1H-imidazol-5-yl)imidazo[1,2-b]pyridazin-2-yl)isonicotinamide] | 0.256 nM | 0.313 nM |
| N#CC1(C(=O)N2CCC(n3cnc(-c4ccc(F)cc4)c3-c3ccc4nc(NC(=O)c5ccnc(F)c5)cn4n3)CC2)CC1 [Compound 71, N-(6-(1-(1-(1-cyanocyclopropanecarbonyl)piperidin-4-yl)-4-(4-fluorophenyl)-1H-imidazol-5-yl)imidazo[1,2-b]pyridazin-2-yl)-2-fluoroisonicotinamide] | 0.676 nM | 0.172 nM |
| O=C(Nc1cn2nc(-c3c(-c4ccc(F)cc4)ncn3C3CCN(C(=O)c4c[nH]cn4)CC3)ccc2n1)c1ccnc(F)c1 [Compound 72, N-(6-(1-(1-(1H-imidazole-4-carbonyl)piperidin-4-yl)-4-(4-fluorophenyl)-1H-imidazol-5-yl)imidazo(1,2-b]pyridazin-2-yl)-2-fluoroisonicotinamide] | 0.559 nM | 0.183 nM |
| O=C(Nc1cn2nc(-c3c(-c4ccc(F)cc4)ncn3C3CCN(C(=O)c4ccns4)CC3)ccc2n1)c1ccnc(F)c1 [Compound 73, 2-fluoro-N-(6-(4-(4-fluorophenyl)-1-(1-(isothiazole-5-carbonyl)piperidin-4-yl)-1H-imidazol-5-yl)imidazo[1,2-b]pyridazin-2-yl)isonicotinamide] | 0.608 nM | 0.354 nM |
| O=C(Nc1cn2nc(-c3c(-c4ccc(F)cc4)ncn3C3CCN(S(=O)(=O)C4CC4)CC3)ccc2n1)c1ccnc(F)c1 [Compound 74, N-(6-(1-(1-(cyclopropylsulfonyl)piperidin-4-yl)-4-(4-fluorophenyl)-1H-imidazol-5-yl)imidazo[1,2-b]pyridazin-2-yl)-2-fluoroisonicotinamide] | 1.52 nM | 0.675 nM |
| O=C(Nc1cn2nc(-c3c(-c4ccc(F)cc4)ncn3C3CCN(C(=O)OC4CCCC4)CC3)ccc2n1)c1ccnc(F)c1 [Compound 77, cyclopentyl 4-(5-(2-(2-fluoroisonicotinamido)imidazo[1,2-b]pyridazin-6-yl)-4-(4-fluorophenyl)-1H-imidazol-1-yl)piperidine-1-carboxylate] | 14 nM | 0.744 nM |
| O=C(Nc1cn2nc(-c3c(-c4ccc(F)cc4)ncn3C3CCN(C(=O)OCC4CC4)CC3)ccc2n1)c1ccnc(F)c1 [Compound 78, cyclopropylmethyl 4-(5-(2-(2-fluoroisonicotinamido)imidazo[1,2-b]pyridazin-6-yl)-4-(4-fluorophenyl)-1H-imidazol-1-yl)piperidine-1-carboxylate] | 2.23 nM | 0.295 nM |
| O=C(Nc1cn2nc(-c3c(-c4ccc(F)cc4)ncn3C3CCN(C(=O)OC4COC4)CC3)ccc2n1)c1ccnc(F)c1 [Compound 80, oxetan-3-yl 4-(5-(2-(2-fluoroisonicotinamido)imidazo[1,2-b]pyridazin-6-yl)-4-(4-fluorophenyl)-1H-imidazol-1-yl)piperidine-1-carboxylate] | 0.809 nM | 0.171 nM |
| O=C(Nc1cn2nc(-c3c(-c4ccc(F)cc4)ncn3C3CCN(C(=O)OC4CCOCC4)CC3)ccc2n1)c1ccnc(F)c1 [Compound 81, tetrahydro-2H-pyran-4-yl 4-(5-(2-(2-fluoroisonicotinamido)imidazo[1,2-b]pyridazin-6-yl)-4-(4-fluorophenyl)-1H-imidazol-1-yl)piperidine-1-carboxylate] | 1.63 nM | 0.311 nM |
